This test concerns human ENTPD2 engineered B16LM3 clone B5. Description: Human ENTPD2 engineered B16LM3 clone B5 model, combination with A2AR antagonist NIR178. The following applies: NIR178 50 or 200 mg/kg p.o. 4 days on, 3 days off, combined with non-specific isotype control. It is filed as in vivo. As to the method:
Human ENTPD2-engineered B16LM3 clone B5 was established in female C57BL/6 mice by subcutaneous injection of 0.5×10^6 cells into the right flank of each mouse. Once tumors reached approximately 50 mm^3, mice were randomized according to tumor volume into treatment groups (n=8 per group). Mice received an intravenous (i.v.) treatment of either anti-ENTPD2 mAb1 at a final dose of 10/mg/kg or a non-specific human IgG1 isotype control 10 mg/kg on day 1 of study. NIR178 was administered per os (p.o.) for 4 days on and 3 days off, starting at the beginning of study at either 50 mg/kg or 200 mg/kg. All doses were adjusted to individual mouse body weights. The study was carried out for thirteen days post treatment initiation and tumor volumes were assessed every other day to assess efficacy.

This is an account of results in US20220348651A1, “ENTPD2 ANTIBODIES, COMBINATION THERAPIES, AND METHODS OF USING THE ANTIBODIES AND COMBINATION THERAPIES” (Novartis AG, priority 2019, published 2022).

As to `Nc1nc(-n2cccn2)nc(-n2cccn2)c1Br` [NIR178, 5-bromo-2,6-di-(1H-pyrazol-1-yl)pyrimidine-4-amine, reference compound], the anti-tumor efficacy result is given as “No significant anti-tumor efficacy”.
